Measured values published in patent US9155706B2, “Pharmaceutical composition” (Novartis AG, priority 2010, dated 2015).
“And” between values parts separate entries of the source, which are not always exact repeats. Equal values may be shown once. “Also recorded” adds a separate entry of the source. Read-outs that look alike come from different tables or passages of the source.

Legend:
[1] = Photostability: light exposure under ICH Q1B conditions, impurities by HPLC; format: physicochemical
Protocol: Uncoated tablets, 0.5, 1 and 2 mg were exposed to ICH Photostability conditions and tested to provide baseline impurity information for comparison.

[2] = Toxic effects at high doses (statement); format: in vivo; details: when administered in high doses
[3] = Exposure and absorption upon in vivo administration (statement)
[4] = Desolvation during handling and formulation (statement); format: physicochemical
[5] = Solubility (comparative statement); format: physicochemical
[6] = Repeat dose toxicokinetics and toxicology, oral gavage, DMSO solvate of Compound, rat; details: for Cmax End of Study: Sprague Dawley, rat, in vivo, po, 0.25 mg/m2
Text: (§1) The pharmacokinetics, absorption, distribution, metabolism and elimination of N-{3-[3-cyclopropyl-5-(2-fluoro-4-iodo-phenylamino)-6, 8-dimethyl-2,4,7-trioxo-3,4,6,7-tetrahydro-2H-pyrido[4,3-d]pyrimidin-1-yl]phenyl}acetamide and solvates thereof, including the dimethyl sulfoxide solvate (collectively referred to as “Compound” when used in connection with animal models or human clinical trials), were investigated in a series of in vitro investigations and with in vivo oral (gavage) and IV studies in the Balb/c mouse, Sprague Dawley rat (unless otherwise stated), beagle dog and cynomolgus monkey using unlabeled and [14C]-labeled Compound. A list of these studies is included, along with subsequently obtained human clinical results, in Table 1 below. For in vivo studies, various formulations were used. For oral dosing, solutions or suspensions were administered.
(§2) Dose range studies in rats at doses up to 1 mg/kg/day for 14 days and in dogs at doses up to 0.5 mg/kg/day (or 10 mg/m2/day) for 10 days were conducted prior to the studies.
(§3) In vivo toxicology studies were conducted in Sprague Dawley rats and beagle dogs by oral gavage (Table 3). Studies were conducted using the DMSO solvate of Compound formulated as a suspension in 1.5% hydroxypropylmethylcellulose, 5% mannitol, and 0.2% sodium lauryl sulfate. For all toxicology studies, doses are expressed based on body surface area (mg/m2). In general, to convert mg/m2 doses to mg/kg, divide the doses by 8 for rats and 20 for dogs.

[7] = female, beagle, dog, in vivo, po
Text: as §1, §2
as §3, with “In general, to convert mg/m2 doses to mg/kg, divide the doses by 8 for rats and 20 for dogs.” left out

clinical = details: human, plasma, oral, 2 mg
Text: (§4) Preliminary PK data was obtained in subjects with solid tumors following single-and repeat-dose oral administration of Compound tablets. The dose-escalation part of the first-time-in-human study (FTIH), involved administration of Compound in one of 3 main dosing regimens: • QD dosing with the designated dose for 21 days, followed by 7 days without drug; • Administration of a loading dose (LD) on both Day 1 and Day 2, or on Day 1 only, followed by continuous QD dosing with the designated dose; or • Administration of continuous QD dosing without a loading dose.
(§5) Additional blood samples were taken pre-dose on Day 15 of Cycle 1 and Day 1 of further cycles in Part 2 and Part 3 to assess steady state trough levels of Compound.

[8] = Single-dose (Day 1) pharmacokinetics of Compound tablets, first-time-in-human study; details: fasting; for AUC(0-t): AUC (0-24); for Tmax: median (range)
Text: Preliminary PK data was obtained in subjects with solid tumors following single-and repeat-dose oral administration of Compound tablets.

[9] = Repeat-dose (Day 15) pharmacokinetics of Compound tablets, first-time-in-human study; details: individual values
Text: as §4, §5

[10] = single dose Day 1, oral tablets, 0.5 mg, individual values
[11] = single dose Day 1, oral tablets, 1.0 mg, individual values

CC(=O)Nc1cccc(-n2c(=O)n(C3CC3)c(=O)c3c(Nc4ccc(I)cc4F)n(C)c(=O)c(C)c32)c1 [Compound A, N-{3-[3-cyclopropyl-5-(2-fluoro-4-iodo-phenylamino)-6,8-dimethyl-2,4,7-trioxo-3,4,6,7-tetrahydro-2H-pyrido[4,3-d]pyrimidin-1-yl]phenyl}acetamide dimethyl sulfoxide solvate]
photo-stability (in words) [1]: sensitive to photo-induced degradation; also recorded: can suffer from photo-instability | toxic effects [2]: can cause toxic effects when administered in high doses | exposure and absorption [3]: poor exposure and absorption | desolvation to unsolvated Compound B [4]: can undergo desolvation

CC(=O)Nc1cccc(-n2c(=O)n(C3CC3)c(=O)c3c(Nc4ccc(I)cc4F)n(C)c(=O)c(C)c32)c1 [Compound B, N-{3-[3-cyclopropyl-5-(2-fluoro-4-iodo-phenylamino)-6,8-dimethyl-2,4,7-trioxo-3,4,6,7-tetrahydro-2H-pyrido[4,3-d]pyrimidin-1-yl]phenyl}acetamide]
solubility compared with Compound A [5]: much less soluble than Compound A

CC(=O)Nc1cccc(-n2c(=O)n(C3CC3)c(=O)c3c(Nc4ccc(I)cc4F)n(C)c(=O)c(C)c32)c1 [Compound, N-{3-[3-cyclopropyl-5-(2-fluoro-4-iodo-phenylamino)-6,8-dimethyl-2,4,7-trioxo-3,4,6,7-tetrahydro-2H-pyrido[4,3-d]pyrimidin-1-yl]phenyl}acetamide]
maximum tolerated dose (MTD) ([6]; Rat, 3 weeks, oral, two doses marked MTD, sex shown by bolding that is lost): 0.5 mg/m^2/day and 1 mg/m^2/day | Cmax End of Study ([6]; female): 8.03 ng/mL | Cmax End of Study ([6]; male): 5.34 ng/mL | Cmax End of Study ([7]; 0.3 mg/m2): 7.24 ng/mL | Cmax End of Study ([7]; 0.45 mg/m2): 9.78 ng/mL | half-life (clinical): ~5 days | C24 ([8]; Day 1, oral tablets, 6.0 mg loading dose, mean (CV %) and range): (3.4-11.1) ng/mL | C24 ([8]; Day 1, oral tablets, 8.0 mg loading dose, mean (CV %) and range): (2.98-12.1) ng/mL | C24 ([8]; Day 1, oral tablets, 10.0 mg loading dose, mean (CV %) and range): (21.0-29.0) ng/mL | Cmax ([8]; human, plasma, po, 0.5 mg, Cmax, single dose Day 1, oral tablets, 0.5 mg, individual values): 0.85 ng/mL | AUC(0-t) ([8]; human, plasma, po, 1 mg, single dose Day 1, oral tablets, 1.0 mg, individual values): 13.5 ng·h/mL | Cmax ([8]; human, plasma, po, 1 mg, Cmax, single dose Day 1, oral tablets, 1.0 mg, individual values): 1.71 ng/mL | AUC(0-t) ([8]; human, plasma, po, 2 mg, single dose Day 1, oral tablets, 2.0 mg, mean (CV %) and range): 44.2 to 77.4 ng·h/mL | Cmax ([8]; human, plasma, po, 2 mg, Cmax, single dose Day 1, oral tablets, 2.0 mg, mean (CV %) and range): 5.4 to 8.81 ng/mL | Tmax ([8]; human, plasma, po, 2 mg, single dose Day 1, oral tablets, 2.0 mg): 1.5 to 2 h | AUC(0-t) ([8]; human, plasma, po, 2.5 mg, single dose Day 1, oral tablets, 2.5 mg, mean (CV %) and range): 47.3 to 95.9 ng·h/mL | Cmax ([8]; human, plasma, po, 2.5 mg, Cmax, single dose Day 1, oral tablets, 2.5 mg, mean (CV %) and range): 6.7 to 16.2 ng/mL | Tmax ([8]; human, plasma, po, 2.5 mg, single dose Day 1, oral tablets, 2.5 mg): 1 to 2 h | AUC(0-t) ([8]; human, plasma, po, 3 mg, single dose Day 1, oral tablets, 3.0 mg, mean (CV %) and range): 27.6 to 188 ng·h/mL | Cmax ([8]; human, plasma, po, 3 mg, Cmax, single dose Day 1, oral tablets, 3.0 mg, mean (CV %) and range): 2.82 to 22.9 ng/mL | Tmax ([8]; human, plasma, po, 3 mg, single dose Day 1, oral tablets, 3.0 mg): 0.5 to 3 h | AUC(0-t) ([8]; human, plasma, po, 4 mg, single dose Day 1, oral tablets, 4.0 mg, mean (CV %) and range): 167 to 275 ng·h/mL | Cmax ([8]; human, plasma, po, 4 mg, Cmax, single dose Day 1, oral tablets, 4.0 mg, mean (CV %) and range): 16.3 to 34.2 ng/mL | AUC(0-t) ([8]; human, plasma, po, 6 mg, Day 1, oral tablets, 6.0 mg loading dose, mean (CV %) and range): 96.7 to 320 ng·h/mL | Cmax ([8]; human, plasma, po, 6 mg, Cmax, Day 1, oral tablets, 6.0 mg loading dose, mean (CV %) and range): 6.91 to 37.2 ng/mL | Tmax ([8]; human, plasma, po, 6 mg, Day 1, oral tablets, 6.0 mg loading dose): 1.05 to 8.08 h | AUC(0-t) ([8]; human, plasma, po, 8 mg, Day 1, oral tablets, 8.0 mg loading dose, mean (CV %) and range): 62.9 to 308 ng·h/mL | Cmax ([8]; human, plasma, po, 8 mg, Cmax, Day 1, oral tablets, 8.0 mg loading dose, mean (CV %) and range): 4.28 to 32 ng/mL | Tmax ([8]; human, plasma, po, 8 mg, Day 1, oral tablets, 8.0 mg loading dose): 1 to 24 h | AUC(0-t) ([8]; human, plasma, po, 10 mg, Day 1, oral tablets, 10.0 mg loading dose, mean (CV %) and range): 773 to 979 ng·h/mL | Cmax ([8]; human, plasma, po, 10 mg, Cmax, Day 1, oral tablets, 10.0 mg loading dose, mean (CV %) and range): 65.1 to 87.8 ng/mL | Tmax ([8]; human, plasma, po, 10 mg, Day 1, oral tablets, 10.0 mg loading dose): 1 to 2 h | AUC (0-24) [8, 10]: 2.13 ng·h/mL and 9.69 ng·h/mL | C24 [8, 10]: 0 ng/mL and 0.31 ng/mL | AUC (0-24) [8, 11]: 12.2 ng·h/mL | C24 [8, 11]: 0.38 ng/mL and 0.27 ng/mL | Cmax [8, 11]: 1.96 ng/mL | C24 ([8]; single dose Day 1, oral tablets, 2.0 mg, mean (CV %) and range): (1.15-1.93) ng/mL | C24 ([8]; single dose Day 1, oral tablets, 2.5 mg, mean (CV %) and range): (1.25-3.10) ng/mL | C24 ([8]; single dose Day 1, oral tablets, 3.0 mg, mean (CV %) and range): (0.75-13.4) ng/mL | C24 ([8]; single dose Day 1, oral tablets, 4.0 mg, mean (CV %) and range): (5.53-14.9) ng/mL | AR (Accumulation Ratio) ([9]; repeat dose Day 15, 0.50 mg): 28.3 and 10.2 | T1/2, eff (Effective Half-Life) ([9]; repeat dose Day 15, 0.50 mg): 19.2 days and 6.7 days | AR (Accumulation Ratio) ([9]; repeat dose Day 15, 1 mg): 18.1 and 7.8 | T1/2, eff (Effective Half-Life) ([9]; repeat dose Day 15, 1 mg): 12.2 days and 5.1 days | AR (Accumulation Ratio) ([9]; repeat dose Day 15, 4 mg): 2.42 and 3.45 | T1/2, eff (Effective Half-Life) ([9]; repeat dose Day 15, 4 mg): 2.02 days
